ChEMBL document CHEMBL3885861, “Open TG-GATES”

Species: Rattus norvegicus
Assay: Open TG-GATES - Regimen: Single
Assay type: toxicity, organism-based, Sprague-Dawley
Parameters: regimen Single, gender Male, age 6 weeks
Settings: in vivo, ip, 0.01 mg/kg, route intraperitoneal injection, dose 10 ug/Kg, dose level High; for APTT / Bas / Eos / Fbg / Hb / Ht / Lym / MCH / MCHC / MCV / Mono / Neu / PT / Plat / RBC / Ret / WBC: tissue Blood; for KIDNEY_L / KIDNEY_R / KIDNEY_TOTAL: tissue Kidney; for LIVER: tissue Liver; for A/G / ALP / ALT / AST / BUN / CRE / Ca / Cl / DBIL / GLC / IP / K / LDH / Na / PL / RALB / TBIL / TC / TG / TP / gamma-GTP: tissue Plasma

## H-KGDRLS-OH [TNF-ALPHA]
3 h
  TERMINAL_BW: 199.5 g
  APTT: 15.7 s
  Bas: 0.2%
  Eos: 0.4%
  Fbg: 279.2 mg/dL
  Hb: 13.2 g/dL
  Ht: 40.1%
  Lym: 75%
  MCH: 21.5 pg
  MCHC: 32.8%
  MCV: 65.3 fL
  Mono: 4.4%
  Neu: 18.8%
  PT: 15.4 s
  Plat: 115.5 x10_4/uL
  RBC: 615.2 x10_4/ul
  Ret: 9.2%
  WBC: 82.2 x10_2/uL
  KIDNEY_L: 0.9 g
  KIDNEY_R: 0.9 g
  KIDNEY_TOTAL: 1.7 g
  LIVER: 8.8 g
  A/G: 0.9
  ALP: 1307.2 IU/L
  ALT: 43.6 IU/L
  AST: 79.2 IU/L
  BUN: 10.4 mg/dL
  CRE: 0.2 mg/dL
  Ca: 10.7 mg/dL
  Cl: 105.8 meq/L
  DBIL: 0.01 mg/dL
  GLC: 167 mg/dL
  IP: 9.8 mg/dL
  K: 4 meq/L
  LDH: 71 IU/L
  Na: 142.4 meq/L
  PL: 141.2 mg/dL
  RALB: 2.4 g/dL
  TBIL: 0.062 mg/dL
  TC: 77.8 mg/dL
  TG: 50.4 mg/dL
  TP: 5.2 g/dL
  gamma-GTP: 1.2 IU/L
6 h
  TERMINAL_BW: 194.4 g
  APTT: 18.1 s
  Bas: 0%
  Eos: 0.2%
  Fbg: 349.4 mg/dL
  Hb: 13.2 g/dL
  Ht: 40.3%
  Lym: 62.4%
  MCH: 21 pg
  MCHC: 32.9%
  MCV: 63.8 fL
  Mono: 2.6%
  Neu: 34.2%
  PT: 15 s
  Plat: 106.9 x10_4/uL
  RBC: 632.2 x10_4/ul
  Ret: 7.9%
  WBC: 58.5 x10_2/uL
  KIDNEY_L: 0.9 g
  KIDNEY_R: 0.9 g
  KIDNEY_TOTAL: 1.8 g
  LIVER: 8.5 g
  A/G: 0.8
  ALP: 1422.6 IU/L
  ALT: 37.6 IU/L
  AST: 73 IU/L
  BUN: 8.6 mg/dL
  CRE: 0.2 mg/dL
  Ca: 10.8 mg/dL
  Cl: 105.4 meq/L
  DBIL: 0.008 mg/dL
  GLC: 170.8 mg/dL
  IP: 9.8 mg/dL
  K: 3.8 meq/L
  LDH: 67.2 IU/L
  Na: 143.2 meq/L
  PL: 162.2 mg/dL
  RALB: 2.5 g/dL
  TBIL: 0.06 mg/dL
  TC: 91.8 mg/dL
  TG: 40.2 mg/dL
  TP: 5.4 g/dL
  gamma-GTP: 1.4 IU/L
9 h
  TERMINAL_BW: 194.6 g
  APTT: 19.4 s
  Bas: 0%
  Eos: 0.6%
  Fbg: 371 mg/dL
  Hb: 13.4 g/dL
  Ht: 40.6%
  Lym: 69.8%
  MCH: 21.4 pg
  MCHC: 32.9%
  MCV: 64.8 fL
  Mono: 1.8%
  Neu: 26.8%
  PT: 15.3 s
  Plat: 105.5 x10_4/uL
  RBC: 627.6 x10_4/ul
  Ret: 8.3%
  WBC: 66.7 x10_2/uL
  KIDNEY_L: 0.9 g
  KIDNEY_R: 0.9 g
  KIDNEY_TOTAL: 1.7 g
  LIVER: 7.9 g
  A/G: 0.8
  ALP: 1174.4 IU/L
  ALT: 32.6 IU/L
  AST: 62.8 IU/L
  BUN: 7.2 mg/dL
  CRE: 0.2 mg/dL
  Ca: 10.8 mg/dL
  Cl: 104.4 meq/L
  DBIL: 0.004 mg/dL
  GLC: 167.2 mg/dL
  IP: 10.2 mg/dL
  K: 3.9 meq/L
  LDH: 55.2 IU/L
  Na: 141.6 meq/L
  PL: 159.2 mg/dL
  RALB: 2.5 g/dL
  TBIL: 0.064 mg/dL
  TC: 96.6 mg/dL
  TG: 22.2 mg/dL
  TP: 5.5 g/dL
  gamma-GTP: 1.4 IU/L
24 h
  TERMINAL_BW: 211.6 g
  APTT: 15.6 s
  Bas: 0.2%
  Eos: 0.8%
  Fbg: 323.4 mg/dL
  Hb: 13.1 g/dL
  Ht: 40.2%
  Lym: 80.4%
  MCH: 21.5 pg
  MCHC: 32.6%
  MCV: 65.8 fL
  Mono: 3%
  Neu: 15%
  PT: 15.5 s
  Plat: 116.4 x10_4/uL
  RBC: 610.2 x10_4/ul
  Ret: 8.5%
  WBC: 77.3 x10_2/uL
  KIDNEY_L: 1 g
  KIDNEY_R: 0.9 g
  KIDNEY_TOTAL: 1.9 g
  LIVER: 9.8 g
  A/G: 0.8
  ALP: 1565.6 IU/L
  ALT: 47.8 IU/L
  AST: 69.6 IU/L
  BUN: 15.4 mg/dL
  CRE: 0.2 mg/dL
  Ca: 11.1 mg/dL
  Cl: 106.6 meq/L
  DBIL: 0.012 mg/dL
  GLC: 190 mg/dL
  IP: 8.9 mg/dL
  K: 4.4 meq/L
  LDH: 93.6 IU/L
  Na: 142.2 meq/L
  PL: 156 mg/dL
  RALB: 2.6 g/dL
  TBIL: 0.042 mg/dL
  TC: 83.6 mg/dL
  TG: 76.2 mg/dL
  TP: 5.7 g/dL
  gamma-GTP: 1 IU/L
